{"source": "patent US4837228A", "about": "“Antiinflammatory and antimicrobial compounds and compositions” (The University of Mississippi, priority 1982, dated 1989)", "key": {"Staphylococcus aureus [1]": {"system": "Staphylococcus aureus", "experiment": "MIC, two-fold (broth) serial dilution, S. aureus", "format": "cell-based", "settings": "Staphylococcus aureus, read-out: MIC", "in_short": "(§1)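 Agar well diffusion gave qualitative activity, and two-fold broth serial dilution gave MIC. Inoculum was one loop of a 1:10 dilution of 24-h broth culture; fungi and M. smegmatis often needed 48–72 h incubation. Streptomycin sulfate and amphotericin B served as antibacterial and antifungal controls.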"}, "[2]": {"system": "carrageenan-induced rat paw edema", "experiment": "carrageenan-induced rat paw edema test, oral gavage", "format": "in vivo", "parameters": "key to mean difference in volume (MDV): ml; post-injection minus pre-injection mean paw volume", "settings": "for inhibition at 120 mg/kg / inhibition at 240 mg/kg / inhibition at 480 mg/kg: Rattus norvegicus, po, Table 5; for inhibition at 120 mg/kg: read-out: inhibition of carrageenan-induced rat paw edema", "experimental": "In the Rat Paw Edema Test, the rats utilized were divided into test groups of six to eight animals, weighed and marked so that individual rats could be identified; one hour before testing all rats were given a 700 mg/kg intraperitoneal injection of ethyl urethane in distilled water to render them tractable during testing. […] Negative control groups received the vehicle; while positive control groups received a dose of phenylbutazone (PBZ) as shown in Table II. Test compounds were given at doses of 60, 120, 240 and 480 mg/kg. The positive controls were given at 120 mg/kg and 60 mg/kg. Phenylbutazone was prepared for injection by suspending it in normal saline using Tween 60. The rats were then held in group cages for 30 minutes. The volume of the left hind paw was measured using a mercury displacement pleysmograph. The paw is dipped into the mercury until the mercury touches the line above the ankle. Mercury is then withdrawn until the mercury returns to its original level. The amount of mercury removed is measured in milliliters (ml). The mercury can be measured accurately to 0.01 ml. This left hind paw was then injected with 0.1 ml of a 5% w/v solution of viscous carageenan in normal saline. The injection was given between the metatarsal bones using a 27 gauge needle, and the rats then held in group cages for 3 hours. The volume of the left hind paws was measured again in the pleysmograph. The results were computed in the following manner:\na. A mean is taken for both the pre-injection and post-injection paw volume of each test group.\nb. The mean difference in volume (MDV) for each test group is computed by subtracting the pre-injection means from the post-injection mean.\nc. The percent of control is computed for each test [formula] The percent of control is used to compare the efficacy of the various drug treatments.\nd. The percent increase in paw volume is calculated for each group as: [formula] The percent increase is used to compare the amount of edma observed in one experiment to the amount of edma observed in other experiments.\n[…] The test was conducted twice, once with nonfasted rats and once with rats that had been fasted during the 24 hour period prior to dosing. The 60 mg/kg phenylbutazone control group was not used in the test with fasted animals. Tween 60 in normal saline was the vehicle control for the non-fasted rats and normal saline was the vehicle control for the fasted rats."}, "[3]": {"system": "Trichophyton mentagrophytes", "experiment": "MIC, two-fold (broth) serial dilution, T. mentagrophytes", "format": "cell-based", "in_short": "as §1"}, "[4]": {"experiment": "G.C. analysis of CBC in the hemolysis test solution", "format": "physicochemical", "experimental": "It was apparent that not all the CBC actually went into suspension. In order to determine if some of the CBC adhered to the wall of the glassware a 10 ml aliquot of the 2×10^-4 (solution a) of CBC saturated with NaCl was extracted with CHCl3 and analyzed by G.C. […] The flask was rinshed with ethanol and the washings analyzed by G.C. and found to contain 1.355 mg of CBC. The remaining 1.475 mg (50%) of CBC that could not be accounted for by G.C. analysis may have been lost during the extraction procedure or while adjusting the pH of the test solution. If the 1.475 mg CBC which could not be accounted for was actually in suspension then the maximum final concentration of CBC used in the highest CBC test level would be […] or one half the amount listed in Table 6. […] The actual activity of CBC may have been 3 to 30 times more protective of red cell membranes than an equivalent amount of PBZ."}, "Staphylococcus aureus [5]": {"system": "Staphylococcus aureus", "experiment": "agar well diffusion assay, S. aureus", "format": "cell-based", "settings": "from edge of agar well", "experimental": "(§2) Both qualitative and quantitative screens were performed. Qualitative screening was accomplished using the agar well diffusion assay technque while quantitative screening was accomplished by the two-fold (broth) serial dilution method to determine the minimum inhibitory concentration (MIC). Innoculation was accomplished with one loop-full of a 1:10 dilution of the 24-hour-old broth culture, (fungal cultures and M.smegmatis more often required 48 to 72 hours of incubation) of the test organisms in sterile water. Streptomycin sulfate was used as a positive control for antibacterial activity while amphitericin B was used as an antifungal positive control. Organisms utilized in the screens included gram-positive, gram-negative, and acid-fast bacteria as well as different types of fungi. […] An intermediate type activity is seen where R is hydrogen. However, where R is lengthened up to C15 a decrease in activity was noted. Total saturation of the two double bonds in the compounds having a methyl side chain lead, in most cases, to an increase in both antifungal and antibacterial activity."}, "Pseudomonas aeruginosa": {"system": "Pseudomonas aeruginosa", "experiment": "agar well diffusion assay, Ps. aeruginosa", "format": "cell-based", "settings": "from edge of agar well", "experimental": "as §2"}, "Aspergillus niger": {"system": "Aspergillus niger", "experiment": "agar well diffusion assay, A. niger", "format": "cell-based", "settings": "from edge of agar well", "experimental": "as §2"}, "[6]": {"settings": "Table 6, 120 mg/kg oral, non-fasted rats"}, "[7]": {"settings": "Table 6, 240 mg/kg oral, non-fasted rats"}, "[8]": {"settings": "Table 6, 480 mg/kg oral, non-fasted rats"}, "[9]": {"settings": "Table 7, 120 mg/kg oral, fasted rats, doses approximate"}, "[10]": {"settings": "Table 7, 240 mg/kg oral, fasted rats, doses approximate"}, "[11]": {"settings": "Table 7, 480 mg/kg oral (given following saline infusion), fasted rats, doses approximate"}}, "note": "“Also recorded” adds a separate entry of the source. Where two headings read alike, the source gives them in different places."}
{"molecule": "CCCCCc1cc(O)c2c(c1)OC(C)(CCC=C(C)C)C=C2", "note": "(centres unmarked) [CBC (I), 2-methyl-2(4'methyl-pent-3'-enyl)-5-hydroxy-7-pentyl chromene]", "values": [{"measurement": "MIC", "setting": "Staphylococcus aureus [1]; 24 h", "result": 1.56, "unit": "µg/mL"}, {"measurement": "MIC", "setting": "Staphylococcus aureus [1]; 48 h", "result": 1.56, "unit": "µg/mL"}, {"measurement": "inhibition at 120 mg/kg", "setting": "[2]; 120 mg/kg oral, fasted rats, N.S.", "result": 35, "unit": "%"}, {"measurement": "inhibition at 120 mg/kg", "setting": "[2]; 120 mg/kg oral, nonfasted rats", "result": 21, "unit": "%"}, {"measurement": "inhibition at 240 mg/kg", "setting": "[2]; 240 mg/kg oral, fasted rats, * P = 0.01", "result": 67, "unit": "%"}, {"measurement": "inhibition at 240 mg/kg", "setting": "[2]; 240 mg/kg oral, nonfasted rats, ** P = 0.05", "result": 34, "unit": "%"}, {"measurement": "inhibition at 480 mg/kg", "setting": "[2]; 480 mg/kg oral, fasted rats, ** P = 0.05", "result": 55, "unit": "%"}, {"measurement": "inhibition at 480 mg/kg", "setting": "[2]; 480 mg/kg oral, nonfasted rats, * P = 0.01", "result": 50, "unit": "%"}, {"measurement": "mean difference in volume (MDV)", "setting": "[2]; [6]", "result": 0.496}, {"measurement": "percent increase in paw volume", "setting": "[2]; [6]", "result": 41.311, "unit": "%"}, {"measurement": "percent of control", "setting": "[2]; [6]", "result": 79.400, "unit": "%"}, {"measurement": "mean difference in volume (MDV)", "setting": "[2]; [7]", "result": 0.412}, {"measurement": "percent increase in paw volume", "setting": "[2]; [7]", "result": 38.372, "unit": "%"}, {"measurement": "percent of control", "setting": "[2]; [7]", "result": 66.000, "unit": "%"}, {"measurement": "mean difference in volume (MDV)", "setting": "[2]; [8]", "result": 0.315}, {"measurement": "percent increase in paw volume", "setting": "[2]; [8]", "result": 29.200, "unit": "%"}, {"measurement": "percent of control", "setting": "[2]; [8]", "result": 50.400, "unit": "%"}, {"measurement": "mean difference in volume (MDV)", "setting": "[2]; [9]", "result": 0.409}, {"measurement": "percent increase in paw volume", "setting": "[2]; [9]", "result": 31.382, "unit": "%"}, {"measurement": "percent of control", "setting": "[2]; [9]", "result": 65.400, "unit": "%"}, {"measurement": "mean difference in volume (MDV)", "setting": "[2]; [10]", "result": 0.209}, {"measurement": "percent increase in paw volume", "setting": "[2]; [10]", "result": 15.981, "unit": "%"}, {"measurement": "percent of control", "setting": "[2]; [10]", "result": 53.400, "unit": "%"}, {"measurement": "mean difference in volume (MDV)", "setting": "[2]; [11]", "result": 0.281}, {"measurement": "percent increase in paw volume", "setting": "[2]; [11]", "result": 22.321, "unit": "%"}, {"measurement": "percent of control", "setting": "[2]; [11]", "result": 45.000, "unit": "%"}, {"measurement": "antiinflammatory activity compared with PBZ in words", "setting": "[2]; oral, listed as CBC", "result": "about equally effective at 120 mg/kg in the fasted rats; also recorded: generally more effective in inhibiting edema than was PBZ"}, {"measurement": "MIC", "setting": "[3]; 48 hr", "result": 25.0, "unit": "µg/mL"}, {"measurement": "MIC", "setting": "[3]; 72 hr", "result": 50.0, "unit": "µg/mL"}, {"measurement": "MIC", "setting": "[3]; Trichophyton mentagrophytes, 48 h, read-out: MIC", "result": 25, "unit": "µg/mL"}, {"measurement": "MIC", "setting": "[3]; Trichophyton mentagrophytes, 72 h, read-out: MIC", "result": 50, "unit": "µg/mL"}, {"measurement": "amount of original CBC found in solution", "setting": "[4]; 10 ml aliquot, G.C.", "result": 0.3, "unit": "mg"}, {"measurement": "amount of CBC found in ethanol washings of the flask", "setting": "[4]; G.C.", "result": 1.355, "unit": "mg"}, {"measurement": "maximum final concentration of CBC in the highest CBC test level", "setting": "[4]; if unaccounted CBC was in suspension", "result": 50, "unit": "µM"}, {"measurement": "concentration of CBC found in test solution a", "setting": "[4]; nominal 2×10^-4, saturated with NaCl, extracted with CHCl3, G.C.", "result": 20, "unit": "µM"}, {"measurement": "width of inhibition zone", "setting": "Staphylococcus aureus [5]; 24 hr", "result": "10.", "unit": "mm"}, {"measurement": "width of inhibition zone", "setting": "Staphylococcus aureus [5]; 48 hr", "result": "10.", "unit": "mm"}, {"measurement": "width of inhibition zone", "setting": "Pseudomonas aeruginosa; 24 hr", "result": "1.", "unit": "mm"}, {"measurement": "width of inhibition zone", "setting": "Pseudomonas aeruginosa; 48 hr", "result": "1.", "unit": "mm"}, {"measurement": "width of inhibition zone", "setting": "Aspergillus niger; 48 hr", "result": "2.", "unit": "mm"}, {"measurement": "width of inhibition zone", "setting": "Aspergillus niger; 72 hr", "result": "2.", "unit": "mm"}]}
